Experiment: solvent given as SMILES

COc1ccccc1C(=O)O
Conditions	solvation free energy, 298 K [kcal/mol]
in C1CCOC1	-11.8
in C1COCCO1	-11.7
in CC(C)(C)O	-11
in CC(C)CCO	-10.8
in CC(C)CO	-10.9
in CC(C)O	-10.9
in CC(C)OCCO	-11.2
in CC(O)COC(C)(C)C	-11
in CCC(C)O	-11
in CCCC(C)O	-10.8
in CCCCCCCCCCO	-10.5
in CCCCCCCO	-10.8
in CCCCCCO	-10.8
in CCCCCO	-10.9
in CCCCCOC(C)=O	-10.6
in CCCCO	-11.1
in CCCCOC(C)=O	-10.8
in CCCCOCCO	-11.4
in CCCO	-11.2
in CCCOCCO	-11.3
in CCO	-11.5
in CCOC(C)=O	-11.2
in CCOCC	-10.5
in CCOCCO	-11.5
in CO	-11.8
in COC(C)=O	-11.3
in COC(C)CCO	-11.4

Nc1ccc(Cl)cc1
Conditions	solvation free energy, 298 K [kcal/mol]
in O	-5.91

Nc1ccc(S(N)(=O)=O)cc1
Conditions	solvation free energy, 298 K [kcal/mol]
in O	-14.8

CCCOC(C)=O
Conditions	solvation free energy, 298 K [kcal/mol]
in CC(=O)N(C)C	-4.72
in CC(C)CCCC(C)CCCC(C)CCCCC(C)CCCC(C)CCCC(C)C	-3.84
in CCCCC(CC)COC(=O)CCCCC(=O)OCC(CC)CCCC	-4.3
in CCCCCC	-4.03
in CCCCCCC	-4.02
in CCCCCCCC	-4.02
in CCCCCCCCC=CCCCCCCCC(=O)OCC(COC(=O)CCCCCCCC=CCCCCCCCC)OC(=O)CCCCCCCC=CCCCCCCCC	-4.35
in CCCCCCCCCC	-3.96
in CCCCCCCCCCCCCCCC	-3.9
in CCCCCCCCO	-4.33
in CCCCCO	-4.31
in CCCCN(C=O)CCCC	-4.56
in CCOCCO	-4.71
in CN1CCCC1=O	-4.62
in CN1CCCCC1=O	-4.72
in CNC(C)=O	-4.54
in CO	-4.82
in NC=O	-3.72
in O	-2.8
in O=CN1CCOCC1	-4.42
in [2H]O[2H]	-2.84

CCCC(C)=O
Conditions	solvation free energy, 298 K [kcal/mol]
in CC(C)CC(C)(C)C	-4.14
in CC(C)CCCC(C)CCCC(C)CCCCC(C)CCCC(C)CCCC(C)C	-3.72
in CCCCCCC	-4.07
in CCCCCCCC	-3.87
in CCCCCCCCCC	-3.93
in CCCCCCCCCCCCCCCC	-3.74
in CCCCCCCCO	-4.35
in CCN1CCCC1=O	-4.86
in CCN(CC)C(C)=O	-4.91
in CCNC(C)=O	-4.61
in CCNC=O	-4.69
in CN1CCCC1=O	-4.73
in CN1CCCCC1=O	-4.83
in CNC=O	-4.69
in CO	-4.88
in NC=O	-4.12
in O	-3.46
in O=CN1CCOCC1	-4.52
in [2H]O[2H]	-3.38

FC(F)(F)C(F)(F)Cl
Conditions	solvation free energy, 298 K [kcal/mol]
in CCCCCCCCC	-0.87
in CCCCCCCCO	-0.39
in CN1CCCC1=O	0.07
in CN(C)C=O	-1.54
in O	2.89

c1ccc(CCc2ccccc2)cc1
Conditions	solvation free energy, 298 K [kcal/mol]
in CCCCCCCCO	-8.8

O=CN1CCOCC1
Conditions	solvation free energy, 298 K [kcal/mol]
in O	-9.41

CCCCN
Conditions	solvation free energy, 298 K [kcal/mol]
in C1COCCO1	-4.48
in CCCCCCCC	-3.44
in CCCCCCCCCC	-3.4
in CCCCCCCCCCCCCCCC	-3.5
in CCCCOCCCC	-3.66
in O	-4.23

c1ccc2c(c1)cc1ccc3cccc4ccc2c1c34
Conditions	solvation free energy, 298 K [kcal/mol]
in CCCCCCCCC=CCCCCCCCC(=O)OCC(COC(=O)CCCCCCCC=CCCCCCCCC)OC(=O)CCCCCCCC=CCCCCCCCC	-16.7

O=C(O)c1ccc(O)cc1
Conditions	solvation free energy, 298 K [kcal/mol]
in C1CCOC1	-11.4
in C1COCCO1	-11.2
in CC(=O)N(C)C	-11.8
in CC(C)(C)O	-11.2
in CC(C)=O	-11.5
in CC(C)CO	-11.3
in CC(C)O	-11.5
in CCC(C)O	-11.2
in CCCCCCCCO	-11
in CCCCCCO	-11.2
in CCCCCO	-11.3
in CCCCO	-11.4
in CCCCOC(C)=O	-10.8
in CCCCOCCCC	-10.2
in CCCO	-11.5
in CCO	-11.7
in CCOC(C)=O	-11
in CCOCC	-10.8
in CN(C)C=O	-11.8
in CNC=O	-11.7
in O	-9.25
